Test results: ChEMBL document CHEMBL1129561 (J Med Chem, 1996); call rule not given here

Key:
Progesterone receptor [1] = target: T1, Progesterone receptor (Homo sapiens, UniProt P06401)
T1 sequence (P06401 whole entry): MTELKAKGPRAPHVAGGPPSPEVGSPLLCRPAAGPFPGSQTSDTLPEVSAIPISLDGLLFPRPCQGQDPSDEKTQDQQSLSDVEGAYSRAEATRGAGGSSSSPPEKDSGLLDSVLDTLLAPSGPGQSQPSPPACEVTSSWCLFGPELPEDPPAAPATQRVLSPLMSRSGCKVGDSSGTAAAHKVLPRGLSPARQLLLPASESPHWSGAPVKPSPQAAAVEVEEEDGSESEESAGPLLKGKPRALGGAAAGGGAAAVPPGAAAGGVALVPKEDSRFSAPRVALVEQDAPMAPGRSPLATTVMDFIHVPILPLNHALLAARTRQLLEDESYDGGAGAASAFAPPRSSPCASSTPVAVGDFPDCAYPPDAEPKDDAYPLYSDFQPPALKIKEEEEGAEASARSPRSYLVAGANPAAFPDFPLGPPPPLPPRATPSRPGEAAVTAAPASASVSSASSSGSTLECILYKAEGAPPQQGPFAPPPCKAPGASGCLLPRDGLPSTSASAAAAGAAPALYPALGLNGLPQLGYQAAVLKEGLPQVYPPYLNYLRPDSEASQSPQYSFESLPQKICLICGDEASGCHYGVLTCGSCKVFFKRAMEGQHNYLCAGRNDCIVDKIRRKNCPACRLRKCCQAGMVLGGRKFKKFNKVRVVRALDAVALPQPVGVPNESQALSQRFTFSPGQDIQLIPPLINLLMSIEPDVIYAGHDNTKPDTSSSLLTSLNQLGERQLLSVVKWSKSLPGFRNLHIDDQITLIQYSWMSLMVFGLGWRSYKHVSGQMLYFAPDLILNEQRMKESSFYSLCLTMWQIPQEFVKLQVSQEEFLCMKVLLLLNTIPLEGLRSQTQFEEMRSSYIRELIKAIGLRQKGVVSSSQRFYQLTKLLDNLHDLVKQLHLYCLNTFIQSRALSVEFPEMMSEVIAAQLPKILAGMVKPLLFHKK

Androgen receptor [2] = target: T2, Androgen receptor (Homo sapiens, UniProt P10275)
T2 sequence (P10275 whole entry): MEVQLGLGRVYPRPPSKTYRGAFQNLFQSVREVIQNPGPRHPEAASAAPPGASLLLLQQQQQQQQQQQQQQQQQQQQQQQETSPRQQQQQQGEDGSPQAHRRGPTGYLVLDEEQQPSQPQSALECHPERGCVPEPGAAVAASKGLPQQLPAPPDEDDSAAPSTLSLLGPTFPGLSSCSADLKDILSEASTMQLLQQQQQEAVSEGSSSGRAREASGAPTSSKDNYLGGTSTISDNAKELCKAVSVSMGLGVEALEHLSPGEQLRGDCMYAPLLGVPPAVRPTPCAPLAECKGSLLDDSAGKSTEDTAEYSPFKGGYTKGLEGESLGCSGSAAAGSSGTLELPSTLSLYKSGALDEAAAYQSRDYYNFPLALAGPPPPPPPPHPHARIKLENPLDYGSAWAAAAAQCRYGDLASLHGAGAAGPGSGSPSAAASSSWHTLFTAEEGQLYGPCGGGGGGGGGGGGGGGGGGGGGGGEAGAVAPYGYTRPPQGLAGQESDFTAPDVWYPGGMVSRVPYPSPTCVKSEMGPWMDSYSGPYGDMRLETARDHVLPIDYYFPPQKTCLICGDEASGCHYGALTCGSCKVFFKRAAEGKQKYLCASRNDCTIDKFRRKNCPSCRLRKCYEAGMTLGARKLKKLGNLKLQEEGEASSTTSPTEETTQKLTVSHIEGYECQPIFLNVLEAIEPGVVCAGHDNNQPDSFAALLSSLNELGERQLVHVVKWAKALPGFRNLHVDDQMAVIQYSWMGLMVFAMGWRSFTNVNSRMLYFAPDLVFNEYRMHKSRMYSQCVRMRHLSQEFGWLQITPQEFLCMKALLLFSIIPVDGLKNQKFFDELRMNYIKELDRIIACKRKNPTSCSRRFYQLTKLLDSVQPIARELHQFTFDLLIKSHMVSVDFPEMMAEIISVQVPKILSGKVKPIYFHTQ
Description: Binding affinity determined against human Androgen receptor

Glucocorticoid receptor [3] = target: T3, Glucocorticoid receptor (Homo sapiens, UniProt P04150)
T3 sequence (P04150 whole entry): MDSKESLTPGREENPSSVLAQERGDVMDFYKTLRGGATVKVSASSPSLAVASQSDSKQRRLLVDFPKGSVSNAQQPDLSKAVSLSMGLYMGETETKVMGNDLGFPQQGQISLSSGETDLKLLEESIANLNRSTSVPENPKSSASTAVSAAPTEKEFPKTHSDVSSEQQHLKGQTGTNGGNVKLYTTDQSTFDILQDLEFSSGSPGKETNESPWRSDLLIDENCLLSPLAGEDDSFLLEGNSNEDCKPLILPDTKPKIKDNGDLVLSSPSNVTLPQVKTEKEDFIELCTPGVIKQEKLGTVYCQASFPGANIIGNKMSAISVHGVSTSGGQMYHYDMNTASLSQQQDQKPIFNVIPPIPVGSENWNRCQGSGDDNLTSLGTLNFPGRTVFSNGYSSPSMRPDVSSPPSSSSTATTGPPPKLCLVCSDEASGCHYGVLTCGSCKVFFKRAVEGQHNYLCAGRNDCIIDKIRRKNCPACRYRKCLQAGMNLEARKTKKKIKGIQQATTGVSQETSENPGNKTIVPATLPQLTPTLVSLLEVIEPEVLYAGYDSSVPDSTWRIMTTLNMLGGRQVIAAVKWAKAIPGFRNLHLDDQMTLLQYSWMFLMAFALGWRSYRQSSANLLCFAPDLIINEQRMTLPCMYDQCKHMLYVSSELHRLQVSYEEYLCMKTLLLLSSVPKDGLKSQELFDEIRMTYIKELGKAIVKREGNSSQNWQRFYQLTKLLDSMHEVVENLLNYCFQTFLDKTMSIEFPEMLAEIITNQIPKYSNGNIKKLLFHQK
Description: Binding affinity was determined for human glucocorticoid receptor(hGR).

Progesterone receptor [4] = target: T1, Progesterone receptor; remark: listed apart in the source
Progesterone receptor [5] = target: T1, Progesterone receptor; remark: listed apart in the source
[6] = target: T4, Progesterone receptor (Homo sapiens) (UniProt P06401); details: CV-1
T4 sequence (whole entry): T1 sequence (P06401 whole entry)

Progesterone receptor [7] = target: T1, Progesterone receptor; remark: listed apart in the source
[8] = target: T4, Progesterone receptor (Homo sapiens); details: CV-1; remark: listed apart in the source
Glucocorticoid receptor [9] = target: T3, Glucocorticoid receptor; test: Inhibitory activity against human glucocorticoid receptor (hGR)
Androgen receptor [10] = target: T2, Androgen receptor; remark: listed apart in the source
Description: Inhibitory activity against human Androgen receptor

Progesterone receptor [11] = target: T1, Progesterone receptor; remark: listed apart in the source
Estrogen receptor = Estrogen receptor (Homo sapiens, UniProt Q92731+P03372)
Description: Inhibitory activity against human estrogen receptor

Row | SMILES | IC50 (Progesterone receptor [1]) [µM] | Ki (Androgen receptor [2]) | Ki (Glucocorticoid receptor [3]) | IC50 (Progesterone receptor [4]) [µM] | Ki (Progesterone receptor [5]) | Max inhibition [6] [%] | EC50 (Progesterone receptor [7]) [µM] | Max inhibition [8] [%] | IC50 (Glucocorticoid receptor [9]) [µM] | IC50 (Androgen receptor [10]) [µM] | EC50 (Progesterone receptor [11]) [µM] | IC50 (Estrogen receptor) [µM]
1 | C=C1C=CCC(C)(C)C1Cc1cc(OC)c(Br)cc1O (configuration not stated) | 0.28 | 1.52 µM | 2.78 µM | 0.783 | 0.156 µM | 71 | – | – | – | – | – | –
2 | C=C1CCC[C@H](C)[C@H]1Cc1cc(OC)c(Br)cc1O | 0.3 | 1.64 µM | 3.7 µM | 1.05 | 0.071 µM | 93 | – | – | – | – | – | –
3 | CCOC1=CC(=O)C(Cc2ccc([N+](=O)[O-])cc2)C(C)(C)C1 (configuration not stated) | – | 10 µM (not active) | 10 µM (not active) | 2.44 | > 10 µM | 93 | – | – | – | – | – | –
4 | C=C1CCC[C@@H](C)[C@@H]1Cc1cc(OC)c(Br)cc1O | 0.2 | 0.57 µM | 2.29 µM | 0.32 | 0.069 µM | 62 | 3.01 | – | – | – | – | –
5 | C=C1[C@H](O)CCC(C)(C)[C@@H]1Cc1cc(OC)c(Br)cc1O | 1.7 | 10 µM (not active) | > 10 µM | 3.4 | 10 µM (not active) | 73 | – | – | – | – | – | –
6 | C=C1C=C(C)C[C@@H](C)[C@@H]1Cc1cc(OC)c(Br)cc1OC(C)=O | 0.147 | 1.5 µM | 2.38 µM | 0.35 | 0.021 µM | 52 | 3.01 | – | – | – | – | –
7 | C=C1C=C(C)C(Cc2cc(OC)c(Br)cc2O)C(C)(C)C1 (configuration not stated) | – | 1.59 µM | 2.67 µM | – | – | 66 | – | – | – | – | – | –
8 | C=C1C=C(C)CC(C)(C)C1Cc1cc(OC)c(Br)cc1O (configuration not stated) | – | 1.45 µM | 1.26 µM | – | – | 37 | – | – | – | – | – | –
9 | C=C1C=C(C)CC(C)(C)C1Cc1cc(OC)c(Br)cc1OC(C)=O (configuration not stated) | 0.77 | 1.94 µM | 2.2 µM | 0.71 | 0.0596 µM | 42 | 1.46 | – | – | – | – | –
10 | C=C1[C@@H](Cc2cc(OC)c(Br)cc2O)C(C)(C)CC[C@@]1(C)O | 0.43 | 6.66 µM | > 10 µM | 2 | 0.275 µM | 78 | – | – | – | – | – | –
11 | C=C1C[C@H](CO)CC(C)(C)[C@@H]1Cc1cc(OC)c(Br)cc1O | 2 | 6.81 µM | 6.39 µM | 3.3 | 3.25 µM | 87 | – | 87 | – | – | – | –
12 | C=C1C=C(C)CC(C)(C)C1Sc1ccc([N+](=O)[O-])cc1 (configuration not stated) | – | > 10 µM | 8.21 µM | – | – | 44 | – | – | – | – | – | –
13 | C=C1C=C(C)CC(C)(C)C1(O)Cc1ccc([N+](=O)[O-])cc1 (configuration not stated) | – | 6.45 µM | 8.51 µM | – | – | 87 | – | – | – | – | – | –
14 | C=C1CCCC(C)(C)C1Cc1cc(OC)c(Br)cc1O (configuration not stated) | 0.163 | – | 2.21 µM | 0.405 | 0.077 µM | 55 | 4.02 | – | – | – | – | –
15 | C=C1CCCC(C)(C)[C@@H]1Cc1cc(OC)c(Br)cc1O | 0.29 | – | 1.78 µM | 0.597 | 0.034 µM | 45 | 3.26 | – | – | – | – | –
16 | C=C1C[C@H](C)C[C@@H](C)[C@@H]1Cc1cc(OC)c(Br)cc1O | 0.35 | 1.14 µM | 1.66 µM | 0.985 | 0.084 µM | 63 | – | – | – | – | – | –
17 | C=C1CC[C@@H](Br)C(C)(C)[C@@H]1Cc1cc(OC)c(Br)cc1O | 3.5 | – | 2.47 µM | – | 0.343 µM | < 20 | – | – | > 10 | 0.238 | 0.035 | > 10
18 | C=C1C=C(C)CC(C)(C)C1Cc1ccc([N+](=O)[O-])c(C)c1 (configuration not stated) | 0.51 | 2.7 µM | 6.81 µM | 1.8 | 0.0288 µM | 85 | – | – | – | – | – | –
19 | C=C1CCC(C)(C)C1Cc1cc(OC)c(Br)cc1O (configuration not stated) | 0.25 | 1.92 µM | 4.53 µM | 1.2 | 0.441 µM | 98 | – | – | – | – | – | –
20 | C=C1C(C)=CCC(C)(C)[C@@H]1Cc1cc(OC)c(Br)cc1OC(C)=O | 0.21 | 6.39 µM | 4.11 µM | 0.66 | 0.455 µM | 83 | – | – | – | – | – | –
21 | COc1cc(CC2C(C)(C)CC(C)=CC23CC3)c(OC(C)=O)cc1Br (configuration not stated) | 0.44 | 3.01 µM | 2.57 µM | 0.16 | 0.098 µM | 26 | 2.12 | – | – | – | – | –
22 | C=C1C[C@H](C)CC(C)(C)[C@@H]1Cc1cc(OC)c(Br)cc1O | > 10 | 0.696 µM | 1.04 µM | – | 0.022 µM | < 20 | – | – | – | – | 0.458 | –
23 | C=C1C=C(C)CC(C)(C)C1Cc1ccc2nonc2c1 (configuration not stated) | 0.775 | > 10 µM | 8.36 µM | 1.95 | 0.088 µM | 72 | – | – | – | – | – | –
